Source: ChEMBL document CHEMBL1148044, “Isorawsonol and related IMP dehydrogenase inhibitors from the tropical green alga Avrainvillea rawsonii” (J Nat Prod, 1994)

Assay: Inhibition of human recombinant IMPDH assessed as NADH formation by spectrophotometry; call rule not given here

SMILES	IC50 (read-out: IC50) [µM]	IC50
OCc1c(Cc2ccc(O)c(Br)c2)c(O)c(O)c(Br)c1Cc1cc(Br)c(O)c(O)c1Cc1ccc(O)c(Br)c1 [ISORAWSONOL]	7.4	
OCc1cc(O)c(O)c(Br)c1		Not Active
COCc1cc(Br)c(O)c(O)c1Cc1ccc(O)c(Br)c1 [AVRAINVILLEOL METHYL ETHER]		Not Active
OCc1cc(Br)c(O)c(O)c1Cc1ccc(O)c(Br)c1 [AVRAINVILLEOL]	18	
COCc1cc(Br)c(O)c(O)c1Cc1cc(Br)c(O)c(Cc2cc(Br)c(O)c(O)c2Cc2ccc(O)c(Br)c2)c1 [RAWSONOL]	10	
